Some test systems named below: COLO 205; SNB-75; HCT-116; TK-10; SK-MEL-2; HL-60; SK-OV-3; SK-MEL-28; UACC-62; EKVX; NCI-H522; SW-620; RXF 393; NCI-H23; NCI-H460; K562; MCF7; PC-3; DU-145.
What all share (assay): NCI tumour cell line growth inhibition, 48 h

The structures appear in SMILES notation.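 1) Cells in 96-well plates. 2) Compound, 48 h, 5 concentrations. 3) Linear interpolation between surrounding doses. 4) Unreached endpoint = highest concentration. Here, GI50 denotes the concentration required for 50% inhibition of growth.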 Active and inactive are the calls of the source. No stated cut-off is given here; in the data, active = GI50 up to about 1.1 µM and inactive = higher.

Consider `CC(=O)NC1=C(C)C(=O)c2c(nc3n2CCC3O)C1=O` (configuration not stated), for which the GI50 was > 100 µM (inactive) in the test on COLO 205; > 100 µM (inactive) with SNB-75; 23.7 µM (inactive) in the test with HCT-116; > 100 µM (inactive) in the test with TK-10; 19.5 µM (inactive) in the test with SK-MEL-2; 8.28 µM (inactive) in the test on HL-60. Moreover, the GI50 in the test on SK-OV-3 is > 61.7 µM (inactive); in the test on SK-MEL-28, > 76.4 µM (inactive); in the test on UACC-62 it was 20.1 µM (inactive); in the test with EKVX it was 24.7 µM (inactive); in the test with NCI-H522, 23.7 µM (inactive); in the test on SW-620 it was 44.4 µM (inactive). Also, the GI50 with RXF 393 is 21.5 µM (inactive); in the test with NCI-H23 it was 35.4 µM (inactive); with NCI-H460, > 87.7 µM (inactive); in the test on K562, 19.1 µM (inactive).

Regarding `O=[N+]([O-])c1cc(C2SCc3nc4ccccc4n32)ccc1Cl` (configuration not stated), the GI50 with COLO 205 is 22.1 µM (inactive); in the test with SNB-75, 28.7 µM (inactive); with HCT-116 it was 17.8 µM (inactive); with TK-10 it was 47.5 µM (inactive); in the test with SK-MEL-2, 21.2 µM (inactive); in the test on HL-60 it was 16 µM (inactive). Also, the GI50 is 28.1 µM (inactive) in the test on SK-OV-3; 25.9 µM (inactive) in the test with SK-MEL-28; 18.6 µM (inactive) in the test with UACC-62; 31.4 µM (inactive) with EKVX; 20 µM (inactive) in the test with NCI-H522; 41 µM (inactive) in the test on SW-620. Besides, the GI50 in the test on RXF 393 is 25.3 µM (inactive); in the test with NCI-H23, 16.1 µM (inactive); with NCI-H460, 31.8 µM (inactive); with K562, 17.1 µM (inactive).

As for `COc1cccc(NC(=O)C(C#N)=C(SC)SC)c1`, the GI50 in the test with COLO 205, in the test on SNB-75, in the test with HCT-116, in the test with TK-10, in the test with SK-MEL-2 and in the test with SK-OV-3 was > 100 µM (inactive) each time. Besides, the GI50 in the test with SK-MEL-28 is > 100 µM (inactive); in the test with UACC-62 it was > 100 µM (inactive); in the test on EKVX, > 100 µM (inactive); in the test with NCI-H522 it was 30.4 µM (inactive); with SW-620 it was > 100 µM (inactive); with RXF 393, > 100 µM (inactive). Moreover, the GI50 in the test on MCF7 was 72.9 µM (inactive); in the test on PC-3 it was > 100 µM (inactive); in the test with NCI-H460, > 100 µM (inactive); in the test with K562 it was > 100 µM (inactive).

Take `Cc1ccc(C(=O)CCC2C(=O)CC(C)(C)CC2=O)cc1`: the GI50 in the test on DU-145, with COLO 205, with SNB-75, in the test on HCT-116, with TK-10 and with SK-MEL-2 was > 100 µM (inactive) in each case. In addition, the GI50 in the test on SK-OV-3 was > 100 µM (inactive); in the test with SK-MEL-28, > 100 µM (inactive); in the test on UACC-62, > 100 µM (inactive); in the test on EKVX, > 100 µM (inactive); in the test on NCI-H522, 16.6 µM (inactive); in the test with SW-620, > 100 µM (inactive). Moreover, the GI50 in the test on RXF 393 is > 100 µM (inactive); with MCF7, 53 µM (inactive); with PC-3 it was > 100 µM (inactive); in the test with NCI-H23, > 100 µM (inactive); with NCI-H460 it was > 100 µM (inactive).

For the compound `COc1cc2c(cc1OCCCN1CCN(C)CC1)N=C[C@@H]1CCCN1C2=O`, the GI50 in the test on DU-145 is 2.25 µM (inactive); with COLO 205 it was 1.02 µM (active); with HCT-116, 2.7 µM (inactive); with TK-10, 3.34 µM (inactive); with SK-MEL-2, 2.42 µM (inactive); in the test with HL-60, 1.41 µM (inactive). Further, the GI50 was 2.84 µM (inactive) in the test on SK-OV-3; 1.9 µM (inactive) in the test with SK-MEL-28; 1.78 µM (inactive) in the test with UACC-62; 2.03 µM (inactive) with EKVX; 0.179 µM (active) in the test with NCI-H522; 1.41 µM (inactive) in the test on SW-620. The GI50 with RXF 393 was 1.87 µM (inactive); with MCF7, 1.22 µM (inactive); in the test with PC-3, 2.67 µM (inactive); with NCI-H460 it was 2.82 µM (inactive); with K562, 0.679 µM (active).

The values above are taken from ChEMBL document CHEMBL1201862, “PubChem BioAssay data set” (2004).
